Reference: US20240158446A1, “CYCLIC COMPOUND HAVING SELECTIVE INHIBITORY ACTION ON KRAS OVER HRAS AND NRAS” (CHUGAI SEIYAKU KABUSHIKI KAISHA, priority 2021, published 2024)
Read-outs that look alike come from different tables or passages of the source. *1 amine or outer side, *2 acyl side, *3 side chain or, on linkers, in order; H or OH if unused. Where a SMILES comes first, the peptide text is derived from it. Bridges are numbered along the chain shown (N, C = ends). [ ]: non-standard residue; d: D form. The star is where a group is joined. hPhe(3-Cl-4-CF3) = N[C@@H](CCc1ccc(C(F)(F)F)c(Cl)c1)C(=O)O; X45 = O=C([C@H](Cc1ccc(C(F)(F)F)cc1)N(CCCF)[*:1])[*:2]; NPrPhe(4-CF3) = CCCN[C@@H](Cc1ccc(C(F)(F)F)cc1)C(=O)O; NMeGly(cPent) = CN[C@H](C(=O)O)C1CCCC1; NMeGly(cBu) = CN[C@H](C(=O)O)C1CCC1; Hyp = O=C(O)[C@@H]1C[C@@H](O)CN1; NMeD = CN[C@@H](CC(=O)O)C(=O)O; NMeL = CN[C@@H](CC(C)C)C(=O)O; Morpholide = C1CN(*)CCO1; Ac5c = NC1(C(=O)O)CCCC1; Sar = CNCC(=O)O

How the values were obtained:
[1] = molecular target: GDP-bound KRAS wild-type protein (Homo sapiens, UniProt P01116); assay: Binding to KRAS by surface plasmon resonance (SPR), Single Cycle Kinetics; conditions: GDP-bound KRAS wild-type protein, read-out: KRAS KD
[2] = molecular target: GDP-bound HRAS wild-type protein (Homo sapiens, UniProt P01112); assay: Binding to HRAS by surface plasmon resonance (SPR), Single Cycle Kinetics; conditions: for HRAS/KRAS (ratio of KD value for HRAS to KD value for KRAS) / HRAS/KRAS (ratio of KD value with respect to HRAS to KD value with respect to KRAS): SPR, GDP-bound HRAS wild-type protein vs GDP-bound KRAS wild-type protein
[3] = molecular target: GDP-bound NRAS wild-type protein (Homo sapiens, UniProt P01111); assay: Binding to NRAS by surface plasmon resonance (SPR), Single Cycle Kinetics; conditions: for NRAS/KRAS (ratio of KD value for NRAS to KD value for KRAS) / NRAS/KRAS (ratio of KD value with respect to NRAS to KD value with respect to KRAS): SPR, GDP-bound NRAS wild-type protein vs GDP-bound KRAS wild-type protein
[4] = SPR Single Cycle Kinetics, 1:1 binding model

GDP-bound HRAS wild-type protein, sequence (P01112 whole entry): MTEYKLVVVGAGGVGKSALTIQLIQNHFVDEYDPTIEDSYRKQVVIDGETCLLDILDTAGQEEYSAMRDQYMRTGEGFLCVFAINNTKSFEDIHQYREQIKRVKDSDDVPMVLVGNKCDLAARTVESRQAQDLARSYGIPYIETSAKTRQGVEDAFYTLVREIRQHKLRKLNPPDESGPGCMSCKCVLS
GDP-bound NRAS wild-type protein, sequence (P01111 whole entry): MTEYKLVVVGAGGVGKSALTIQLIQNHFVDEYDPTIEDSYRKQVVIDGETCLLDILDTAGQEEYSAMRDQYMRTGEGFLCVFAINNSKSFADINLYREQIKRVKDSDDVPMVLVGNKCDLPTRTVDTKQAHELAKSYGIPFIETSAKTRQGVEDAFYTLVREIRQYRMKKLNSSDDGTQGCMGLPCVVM
GDP-bound KRAS wild-type protein, sequence (P01116 whole entry): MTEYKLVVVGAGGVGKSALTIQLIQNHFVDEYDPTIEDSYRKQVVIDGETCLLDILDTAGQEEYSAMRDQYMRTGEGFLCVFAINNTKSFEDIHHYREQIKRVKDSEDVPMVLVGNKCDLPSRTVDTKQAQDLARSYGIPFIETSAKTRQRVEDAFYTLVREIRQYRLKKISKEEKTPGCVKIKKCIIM

Structure (SMILES) | Kd ([1]; SPR, Single Cycle Kinetics) [nM] | HRAS/KRAS (ratio of KD value for HRAS to KD value for KRAS) [2] | NRAS/KRAS (ratio of KD value for NRAS to KD value for KRAS) [3] | Kd [1, 4] [nM] | also measured
CCO[C@@H]1C[C@H]2C(=O)NC3(CCC3)C(=O)N(C)[C@@H](C3CCCC3)C(=O)N(C)[C@H](C(=O)N3CCOCC3)CC(=O)N(C)[C@@H](COC)C(=O)N[C@@H]([C@@H](C)CC)C(=O)N(C)CC(=O)N(C)[C@H]3CCCCCN(C3=O)[C@@H](Cc3ccc(C(F)(F)F)cc3)C(=O)N(C)CC(=O)N[C@@H](CCc3ccc(C(F)(F)F)c(Cl)c3)C(=O)N2C1 [PP0849] | 0.46 | B (a compound having 3 or more and less than 10 is denoted as B) | B (a compound having 3 or more and less than 10 is denoted as B) |  | 
CCO[C@@H]1C[C@H]2C(=O)NC3(CCC3)C(=O)N(C)[C@@H](C3CCCC3)C(=O)N(C)[C@H](C(=O)N3CCCCC3)CC(=O)N(C)[C@H]3CCCCCCc4ccc(cc4)C[C@@H](C(=O)N(C)CC(=O)N[C@@H](CCc4ccc(C(F)(F)F)c(OC)c4)C(=O)N2C1)N1CC/C=C\C[C@@H](C1=O)N(C)C(=O)CN(C)C(=O)[C@H]([C@@H](C)CC)NC3=O [PP3033, (1S,7S,11R,13S,19S,22S,26S,29S,35S,37Z)-19-cyclopentyl-11-ethoxy-7-[2-[3-methoxy-4-(trifluoromethyl)phenyl]ethyl]-3,18,21,25,31,34-hexamethyl-29-[(1S)-1-methylpropyl]-22-(piperidine-1-carbonyl)spiro[3,6,9,15,18,21,25,28,31,34,41-undecazapentacyclo[24.15.11.2^43,46.1^35,41.0^9,13]pentapentaconta-37,43(54),44,46(53)-tetraene-16,1′-cyclobutane]-2,5,8,14,17,20,24,27,30,33,55-undecone] | 0.18 | B (a compound having 3 or more and less than 10 is denoted as B) | A (a compound having 10 or more and less than 20 is denoted as A) |  | 
CCCN1C(=O)CN(C)C(=O)CNC(=O)[C@H]([C@@H](C)CC)NC(=O)[C@H](CC(C)C)N(C)C(=O)C[C@@H](C(=O)N2CCOCC2)N(C)C(=O)[C@H](C2CCCC2)N(C)C(=O)C2(CCCC2)NC(=O)[C@@H]2C[C@@H](OCC)CN2C(=O)[C@H](CCc2ccc(C(F)(F)F)c(Cl)c2)NC(=O)CN(C)C(=O)[C@@H]1Cc1ccc(C(F)(F)F)cc1 [PP0396] ([NMeL]IG[Sar][NPrPhe(4-CF3)][Sar][hPhe(3-Cl-4-CF3)][Hyp](Et)[Ac5c][NMeGly(cPent)][NMeD]-Morpholide; lactam N-11) |  | C (A compound having a KD ratio of 0.1 or more and less than 3 is denoted as C) | B (a compound having 3 or more and less than 10 is denoted as B) | 0.13 | 
CC[C@H](C)[C@@H]1NC(=O)[C@H](CC(C)C)N(C)C(=O)C[C@@H](C(=O)N2CCOCC2)N(C)C(=O)[C@H](C2CCCC2)N(C)C(=O)C2(CCCC2)NC(=O)[C@@H]2CCCN2C(=O)[C@H](CCc2ccc(C(F)(F)F)c(Cl)c2)NC(=O)CN(C)C(=O)[C@H](Cc2ccc(C(F)(F)F)cc2)N(CCCF)C(=O)CN(C)C(=O)CN(C)C1=O [PP0524] ([NMeL]I[Sar][Sar][X45][Sar][hPhe(3-Cl-4-CF3)]P[Ac5c][NMeGly(cPent)][NMeD]-Morpholide; lactam N-11) |  |  |  | 0.11 | HRAS/KRAS (ratio of KD value with respect to HRAS to KD value with respect to KRAS) [2]: C (A compound having a KD ratio of 0.1 or more and less than 3 is denoted as C); NRAS/KRAS (ratio of KD value with respect to NRAS to KD value with respect to KRAS) [3]: B (a compound having 3 or more and less than 10 is denoted as B)
CCC[C@H]1C(=O)N[C@@H](C2CCCCC2)C(=O)N(C)CC(=O)N(C)[C@H]2C/C=C\CCN(C2=O)[C@@H](Cc2ccc(C(F)(F)F)cc2)C(=O)N(C)CC(=O)N[C@@H](CCc2ccc(C(F)(F)F)c(Cl)c2)C(=O)N2C[C@H](OCC)C[C@H]2C(=O)NC2(CC(C)(C)C2)C(=O)N(C)[C@@H](CC(C)(C)C)C(=O)N(C)[C@H](C(=O)N(C)C)CC(=O)N1C [PP3014] | 0.37 | A (a compound having 10 or more and less than 20 is denoted as A) | AA (a compound having 20 or more is denoted as AA) |  | 
CCO[C@@H]1C[C@H]2C(=O)NC3(CCC3)C(=O)N(C)[C@@H](C3CCCC3)C(=O)N(C)[C@H](C(=O)N(C)C)CC(=O)N(C)[C@@H](CC3CCC3)C(=O)N[C@@H]([C@@H](C)CC)C(=O)N(C)CC(=O)N(C)[C@H]3CCCCCN(C3=O)[C@@H](Cc3ccc(C(F)(F)F)cc3)C(=O)N(C)CC(=O)N[C@@H](CCc3cc(F)c(C(F)(F)F)c(F)c3)C(=O)N2C1 [PP0668] |  |  |  | 0.38 | HRAS/KRAS (ratio of KD value with respect to HRAS to KD value with respect to KRAS) [2]: B (a compound having 3 or more and less than 10 is denoted as B); NRAS/KRAS (ratio of KD value with respect to NRAS to KD value with respect to KRAS) [3]: B (a compound having 3 or more and less than 10 is denoted as B)
CC[C@H](C)[C@@H]1NC(=O)[C@H](CC(C)C)N(C)C(=O)C[C@@H](C(=O)N2CCOCC2)N(C)C(=O)[C@H](C2CCCC2)N(C)C(=O)C2(CCCC2)NC(=O)[C@@H]2CCCN2C(=O)[C@H](CCc2ccc(C(F)(F)F)c(Cl)c2)NC(=O)CN(C)C(=O)[C@H](Cc2ccc(OC(F)(F)F)cc2)N2C/C=C\CC[C@@H](C2=O)N(C)C(=O)CN(C)C1=O [PP0610] |  |  |  | 49 | HRAS/KRAS (ratio of KD value with respect to HRAS to KD value with respect to KRAS) [2]: B (a compound having 3 or more and less than 10 is denoted as B); NRAS/KRAS (ratio of KD value with respect to NRAS to KD value with respect to KRAS) [3]: B (a compound having 3 or more and less than 10 is denoted as B)
CC[C@H](C)[C@@H]1NC(=O)[C@H](CC(C)C)N(C)C(=O)C[C@@H](C(=O)N2CCOCC2)N(C)C(=O)[C@H](C2CCCC2)N(C)C(=O)C2(CCC2)NC(=O)[C@@H]2C[C@@H](OCC3CCCC3)CN2C(=O)[C@H](CCc2cc(F)c(C(F)(F)F)c(F)c2)NC(=O)CN(C)C(=O)[C@H](Cc2ccc(C(F)(F)F)cc2)N2CCCC[C@@H](C2=O)N(C)C(=O)CN(C)C1=O [PP1015] | 5 | C (A compound having a KD ratio of 0.1 or more and less than 3 is denoted as C) | C (A compound having a KD ratio of 0.1 or more and less than 3 is denoted as C) |  | 
CCO[C@@H]1C[C@H]2C(=O)NC3(CCC3)C(=O)N(C)[C@@H](C3CCCC3)C(=O)N(C)[C@H](C(=O)N(C)CC)CC(=O)N(C)[C@@H](CC(C)C)C(=O)N[C@@H]([C@@H](C)CC)C(=O)N(C)CC(=O)N(C)[C@H]3C/C=C\CCN(C3=O)[C@@H](Cc3ccc(C(F)(F)F)cc3)C(=O)N(C)CC(=O)N[C@@H](CCc3ccc(C(F)(F)F)c(OC)c3)C(=O)N2C1 [PP2846] |  |  |  | 0.091 | HRAS/KRAS (ratio of KD value with respect to GDP-bound HRAS wild-type protein to KD value with respect to KRAS) ([2]; SPR KD ratio HRAS/KRAS, class symbols): A (a compound having 10 or more and less than 20 is denoted as A); NRAS/KRAS (ratio of KD value with respect to GDP-bound NRAS wild-type protein to KD value with respect to KRAS) ([3]; SPR KD ratio NRAS/KRAS, class symbols): AA (a compound having 20 or more is denoted as AA)
CCCN1C(=O)CN(C)C(=O)CN(C)C(=O)[C@H]([C@@H](C)CC)NC(=O)[C@H](C2CCC2)N(C)C(=O)C[C@@H](C(=O)N2CCOCC2)N(C)C(=O)[C@H](C2CCCC2)N(C)C(=O)C2(CCCC2)NC(=O)[C@@H]2CCCN2C(=O)[C@H](CCc2ccc(C(F)(F)F)c(Cl)c2)NC(=O)CN(C)C(=O)[C@@H]1Cc1ccc(C(F)(F)F)cc1 [PP0188] ([NMeGly(cBu)]I[Sar][Sar][NPrPhe(4-CF3)][Sar][hPhe(3-Cl-4-CF3)]P[Ac5c][NMeGly(cPent)][NMeD]-Morpholide; lactam N-11) |  | C (A compound having a KD ratio of 0.1 or more and less than 3 is denoted as C) | B (a compound having 3 or more and less than 10 is denoted as B) | 0.25 | 
CC[C@H](C)[C@@H]1NC(=O)[C@H](CC2CC2)N(C)C(=O)C[C@@H](C(=O)N(C)C)N(C)C(=O)[C@H](C2CCCC2)N(C)C(=O)C2(CCC2)NC(=O)[C@@H]2CC(F)(F)CN2C(=O)[C@H](CCc2cc(F)c(C(F)(F)F)c(F)c2)NC(=O)CN(C)C(=O)[C@H](Cc2ccc(C(F)(F)F)cc2)N2CC/C=C\C[C@@H](C2=O)N(C)C(=O)CN(C)C1=O [PP1500, (2S,8S,14S,20S,23S,27S,30S,36S,38Z)-20-cyclopentyl-27-(cyclopropylmethyl)-8-[2-[3,5-difluoro-4-(trifluoromethyl)phenyl]ethyl]-12,12-difluoro-N,N,4,19,22,26,32,35-octamethyl-30-[(1S)-1-methylpropyl]-3,6,9,15,18,21,25,28,31,34,42-undecaoxo-2-[[4-(trifluoromethyl)phenyl]methyl]spiro[1,4,7,10,16,19,22,26,29,32,35-undecazatricyclo[34.5.1.0^10,14]dotetracont-38-ene-17,1′-cyclobutane]-23-carboxamide] |  |  |  |  | Kd ([1]; SPR, Single Cycle Kinetics, 1:1 binding model): 0.039 nM; HRAS/KRAS (ratio of KD value for HRAS to KD value for KRAS) ([2]; KD ratio class): A (a compound having 10 or more and less than 20 is denoted as A); NRAS/KRAS (ratio of KD value for NRAS to KD value for KRAS) ([3]; KD ratio class): A (a compound having 10 or more and less than 20 is denoted as A)
